Measurements taken from US11945822B2, “Pyrazolo-triazine and/or pyrazolo-pxrimidine derivatives as selective inhibitor of cyclin dependent kinase” (QURIENT CO., LTD., priority 2018, dated 2024).
pIC50: −log10 of the molar value.

tested on: H460; assay: Cellular H460 viability assay (CellTiter-Glo, 72 hours); assay type: cell-based; conditions: Homo sapiens, NCI-H460
Outline: (§1)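 Cells plated in 96 wells and exposed to compound 72 h at 37 °C, 5% CO2, final DMSO below 0.1%, DMSO control. Viability by CellTiter-Glo luminescence, duplicate.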

| pIC50 | SMILES |
| --- | --- |
| 5.00 to 6.00 | CC(C)c1cnn2c(NCc3c(Cl)cccc3-n3ccc(C(=O)N4CCNCC4)n3)nc(N3CCC(N)CC3)nc12 [Compound 198] |
| > 6.00 | CC(C)c1cnn2c(NCc3ccccc3-n3cc(C(=O)N4CCN(C)CC4)cn3)nc(N3CCC(N)CC3)nc12 [Compound 154] |
| > 6.00 | CC(C)c1cnn2c(NCc3ccccc3-n3ccc(C(=O)NC4CCOCC4)n3)nc(N3CCC(N)CC3)nc12 [Compound 177] |

tested on: MV4-11; assay: Cellular MV4-11 viability assay (CellTiter-Glo, 72 hours); assay type: cell-based; conditions: Homo sapiens
Outline: as §1

| pIC50 | SMILES |
| --- | --- |
| > 6.00 | CC(C)c1cnn2c(NCc3c(Cl)cccc3-n3ccc(C(=O)N4CCNCC4)n3)nc(N3CCC(N)CC3)nc12 [Compound 198] |
| > 6.00 | CC(C)c1cnn2c(NCc3ccccc3-n3cc(C(=O)N4CCN(C)CC4)cn3)nc(N3CCC(N)CC3)nc12 [Compound 154] |
| > 6.00 | CC(C)c1cnn2c(NCc3ccccc3-n3ccc(C(=O)NC4CCOCC4)n3)nc(N3CCC(N)CC3)nc12 [Compound 177] |

tested on: HCT116; assay: Cellular HCT116 viability assay (CellTiter-Glo, 72 hours); assay type: cell-based; conditions: Homo sapiens, HCT-116
Outline: as §1

| pIC50 | SMILES |
| --- | --- |
| > 6.00 | CC(C)c1cnn2c(NCc3c(Cl)cccc3-n3ccc(C(=O)N4CCNCC4)n3)nc(N3CCC(N)CC3)nc12 [Compound 198] |
| > 6.00 | CC(C)c1cnn2c(NCc3ccccc3-n3cc(C(=O)N4CCN(C)CC4)cn3)nc(N3CCC(N)CC3)nc12 [Compound 154] |
| > 6.00 | CC(C)c1cnn2c(NCc3ccccc3-n3ccc(C(=O)NC4CCOCC4)n3)nc(N3CCC(N)CC3)nc12 [Compound 177] |

biological target: T1, CDK1/Cyclin B (Homo sapiens, UniProt P06493); assay: Enzymatic assay for CDK1 (FRET based LANCE Ultra kinase assay); assay type: biochemical; conditions: read-out: CDK1 enzymatic activity (IC50 range)
T1 construct: purchased Invitrogen PR4768C
T1 sequence (P06493 whole entry): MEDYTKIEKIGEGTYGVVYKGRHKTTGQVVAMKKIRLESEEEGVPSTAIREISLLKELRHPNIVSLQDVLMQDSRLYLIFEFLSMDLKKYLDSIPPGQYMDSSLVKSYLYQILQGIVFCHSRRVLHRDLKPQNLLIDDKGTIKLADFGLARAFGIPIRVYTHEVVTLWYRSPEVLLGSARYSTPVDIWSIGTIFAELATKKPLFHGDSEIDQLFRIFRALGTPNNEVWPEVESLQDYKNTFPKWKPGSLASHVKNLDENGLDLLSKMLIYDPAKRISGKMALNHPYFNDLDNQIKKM
T1 sequence (P14635 whole entry partner): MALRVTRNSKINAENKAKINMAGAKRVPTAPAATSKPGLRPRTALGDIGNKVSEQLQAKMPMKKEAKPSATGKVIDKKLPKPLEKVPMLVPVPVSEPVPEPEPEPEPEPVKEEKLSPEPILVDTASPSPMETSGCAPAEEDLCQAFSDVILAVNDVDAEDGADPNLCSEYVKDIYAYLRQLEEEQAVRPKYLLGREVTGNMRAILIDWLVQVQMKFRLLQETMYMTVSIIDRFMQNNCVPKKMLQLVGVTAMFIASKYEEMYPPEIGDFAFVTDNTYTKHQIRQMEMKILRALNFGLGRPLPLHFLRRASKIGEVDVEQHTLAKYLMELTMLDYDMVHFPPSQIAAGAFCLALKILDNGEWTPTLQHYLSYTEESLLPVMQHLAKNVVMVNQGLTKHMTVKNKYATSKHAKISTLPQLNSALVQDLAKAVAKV
Outline: (§2)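 LANCE Ultra TR-FRET: ULight-MBP peptide (68 nM) with ATP at Km, […], 60 min at 23° C. EDTA plus Eu-anti-phospho-MBP added, another 60 min, then 665/615 nm emission read. Compounds tested as 8-dose 4-fold DMSO dilutions.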

| pIC50 | SMILES |
| --- | --- |
| < 6.00 | CC(C)c1cnn2c(NCc3c(Cl)cccc3-n3ccc(C(=O)N4CCNCC4)n3)nc(N3CCC(N)CC3)nc12 [Compound 198] |
| < 6.00 | CC(C)c1cnn2c(NCc3ccccc3-n3cc(C(=O)N4CCN(C)CC4)cn3)nc(N3CCC(N)CC3)nc12 [Compound 154] |
| 6.00 to 7.00 | CC(C)c1cnn2c(NCc3ccccc3-n3ccc(C(=O)NC4CCOCC4)n3)nc(N3CCC(N)CC3)nc12 [Compound 177] |

tested on: MM.1S; assay: Cellular MM.1S viability assay (CellTiter-Glo, 72 hours); assay type: cell-based; conditions: Homo sapiens, MM1.S
Source text: Human T-cell acute lymphoblastic leukemia cell line, MOLT-4 (ATCC, Cat #CRL-1582), Human multiple myeloma cell line, RPMI-8226 (Invitrogen, Cat #22400-089) and MM.1S (ATCC, Cat #CRL-2974), NSCLC (Non-small cell lung cancer) cell line H460 (ATCC, Cat #HTB-177), Human colon colorectal carcinoma cell line HCT116 (ATCC, Cat #CCL-247), Human acute monocytic leukemia cell line MV4-11 (ATCC, Cat #CRL-9591), OVCAR-3 (ATCC, Cat #HTB-161) and A2780 (ECACC, Cat #93112519) were obtained from ATCC. Cells were grown in RPMI-1640 media (Invitrogen, Cat #22400-089) supplemented with 10% FBS (Invitrogen, Cat #10099141) and 1% penicillin/streptomycin (Invitrogen, Cat #15070063) and cultured at 37° C., 5% CO2 in a humidified chamber. All cell lines were routinely tested for mycoplasma.
The effect of the CDK7 inhibitor to inhibit the growth of target cancer cells was evaluated through the 72 hours time period of viability assay. Briefly, the candidate cell line ware plated in 96 well plate at the following density of cells respectively. 1×10^4 cells/well for MOLT-4, RPMI-8226, MV4-11 and MM.1S, 5×10^3 for H460, HCT116 and OVCAR-3 and IX 10^3 for A2780. After 24 hours, the cells were treated with various concentrations of the compound (ranging from 0.0015 uM to 10 uM). DMSO solvent without compound served as a control and final DMSO concentration less than 0.1%. After 72 hours of incubation at 37° C., 5% CO2 incubator, cells were analyzed for the viability using the CellTiter-Glo Luminescent Cell Viability Assay (Promega, Cat #G7570). All viability assays were performed in duplicate and Luminescence was read using an Envision (Perkin Elmer, USA). Data was analyzed using XLfit software.

| pIC50 | SMILES |
| --- | --- |
| ≥ 6.00 | CC(C)c1cnn2c(NCc3c(Cl)cccc3-n3ccc(C(=O)N4CCNCC4)n3)nc(N3CCC(N)CC3)nc12 [Compound 198] |
| ≥ 6.00 | CC(C)c1cnn2c(NCc3ccccc3-n3cc(C(=O)N4CCN(C)CC4)cn3)nc(N3CCC(N)CC3)nc12 [Compound 154] |
| ≥ 6.00 | CC(C)c1cnn2c(NCc3ccccc3-n3ccc(C(=O)NC4CCOCC4)n3)nc(N3CCC(N)CC3)nc12 [Compound 177] |

biological target: T2, CDK2/Cyclin A (Homo sapiens, UniProt P24941); assay: Enzymatic assay for CDK2 (FRET based LANCE Ultra kinase assay); assay type: biochemical; conditions: read-out: CDK2 enzymatic activity (IC50 range)
T2 construct: purchased Invitrogen PV6290
Outline: as §2

| pIC50 | SMILES |
| --- | --- |
| < 6.00 | CC(C)c1cnn2c(NCc3c(Cl)cccc3-n3ccc(C(=O)N4CCNCC4)n3)nc(N3CCC(N)CC3)nc12 [Compound 198] |
| 6.00 to 7.00 | CC(C)c1cnn2c(NCc3ccccc3-n3cc(C(=O)N4CCN(C)CC4)cn3)nc(N3CCC(N)CC3)nc12 [Compound 154] |
| 6.00 to 7.00 | CC(C)c1cnn2c(NCc3ccccc3-n3ccc(C(=O)NC4CCOCC4)n3)nc(N3CCC(N)CC3)nc12 [Compound 177] |

biological target: T3, CDK7/Cyclin H/MNAT1 (Homo sapiens, UniProt P50613); assay: Enzymatic assay for CDK7 (FRET based LANCE Ultra kinase assay); assay type: biochemical; conditions: CDK7 over CDK1
T3 construct: purchased Invitrogen PR6749B
T3 sequence (P50613 whole entry): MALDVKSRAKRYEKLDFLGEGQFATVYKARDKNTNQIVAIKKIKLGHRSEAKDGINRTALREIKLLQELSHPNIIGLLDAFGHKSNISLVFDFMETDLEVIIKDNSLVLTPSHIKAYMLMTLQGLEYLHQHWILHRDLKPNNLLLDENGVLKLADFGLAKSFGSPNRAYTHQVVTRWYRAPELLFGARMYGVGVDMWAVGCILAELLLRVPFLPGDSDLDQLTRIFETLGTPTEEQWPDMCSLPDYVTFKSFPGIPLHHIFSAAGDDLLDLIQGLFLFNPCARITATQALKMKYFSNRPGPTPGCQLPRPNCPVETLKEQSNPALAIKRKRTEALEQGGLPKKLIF
T3 sequence (P51946 whole entry partner): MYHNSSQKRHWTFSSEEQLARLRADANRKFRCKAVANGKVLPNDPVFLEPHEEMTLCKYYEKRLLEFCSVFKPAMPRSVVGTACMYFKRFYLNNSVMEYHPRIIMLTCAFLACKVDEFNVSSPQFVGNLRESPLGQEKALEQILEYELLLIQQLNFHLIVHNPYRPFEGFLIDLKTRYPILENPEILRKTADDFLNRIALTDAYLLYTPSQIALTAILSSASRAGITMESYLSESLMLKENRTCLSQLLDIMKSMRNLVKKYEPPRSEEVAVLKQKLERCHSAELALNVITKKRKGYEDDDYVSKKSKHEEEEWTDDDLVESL
T3 sequence (P51948 whole entry partner): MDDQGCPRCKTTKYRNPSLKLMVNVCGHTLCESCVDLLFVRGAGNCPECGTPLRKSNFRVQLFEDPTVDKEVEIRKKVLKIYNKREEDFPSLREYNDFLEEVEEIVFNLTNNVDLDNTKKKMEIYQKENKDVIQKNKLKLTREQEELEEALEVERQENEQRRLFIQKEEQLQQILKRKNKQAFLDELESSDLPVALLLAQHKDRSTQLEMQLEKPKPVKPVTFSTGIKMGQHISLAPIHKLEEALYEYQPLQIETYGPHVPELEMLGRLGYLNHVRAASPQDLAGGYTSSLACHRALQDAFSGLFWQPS
Outline: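 LANCE Ultra TR-FRET kinase assay using a ULight-labeled peptide substrate and a Eu-labeled anti-phospho antibody, with ATP at its Km. Purified CDK/cyclin complex was added to compound after brief centrifugation.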

| CDK1/CDK7: Selectivity of CDK7 inhibition over CDK1 inhibition | SMILES |
| --- | --- |
| A (A=greater than 200 fold) | CC(C)c1cnn2c(NCc3c(Cl)cccc3-n3ccc(C(=O)N4CCNCC4)n3)nc(N3CCC(N)CC3)nc12 [Compound 198] |
| A (A=greater than 200 fold) | CC(C)c1cnn2c(NCc3ccccc3-n3cc(C(=O)N4CCN(C)CC4)cn3)nc(N3CCC(N)CC3)nc12 [Compound 154] |
| A (A=greater than 200 fold) | CC(C)c1cnn2c(NCc3ccccc3-n3ccc(C(=O)NC4CCOCC4)n3)nc(N3CCC(N)CC3)nc12 [Compound 177] |

same assay, conditions: CDK7 over CDK2

| CDK2/CDK7: Selectivity of CDK7 inhibition over CDK2 inhibition | SMILES |
| --- | --- |
| A (A=greater than 200 fold) | CC(C)c1cnn2c(NCc3c(Cl)cccc3-n3ccc(C(=O)N4CCNCC4)n3)nc(N3CCC(N)CC3)nc12 [Compound 198] |
| A (A=greater than 200 fold) | CC(C)c1cnn2c(NCc3ccccc3-n3cc(C(=O)N4CCN(C)CC4)cn3)nc(N3CCC(N)CC3)nc12 [Compound 154] |

| SMILES | CDK2/CDK7: Selectivity of CDK7 inhibition over CDK2 inhibition |
| --- | --- |
| CC(C)c1cnn2c(NCc3ccccc3-n3ccc(C(=O)NC4CCOCC4)n3)nc(N3CCC(N)CC3)nc12 [Compound 177] | B (B=less than 200 fold, but greater than 20 fold) |

same assay, conditions: CDK7 over CDK5

| CDK5/CDK7: Selectivity of CDK7 inhibition over CDK5 inhibition | SMILES |
| --- | --- |
| A (A=greater than 200 fold) | CC(C)c1cnn2c(NCc3c(Cl)cccc3-n3ccc(C(=O)N4CCNCC4)n3)nc(N3CCC(N)CC3)nc12 [Compound 198] |
| C (C=less than 20 fold) | CC(C)c1cnn2c(NCc3ccccc3-n3ccc(C(=O)NC4CCOCC4)n3)nc(N3CCC(N)CC3)nc12 [Compound 177] |

| SMILES | CDK5/CDK7: Selectivity of CDK7 inhibition over CDK5 inhibition |
| --- | --- |
| CC(C)c1cnn2c(NCc3ccccc3-n3cc(C(=O)N4CCN(C)CC4)cn3)nc(N3CCC(N)CC3)nc12 [Compound 154] | B (B=less than 200 fold, but greater than 20 fold) |

same assay, conditions: read-out: CDK7 enzymatic activity (IC50 range)

| pIC50 | SMILES |
| --- | --- |
| > 7.00 | CC(C)c1cnn2c(NCc3c(Cl)cccc3-n3ccc(C(=O)N4CCNCC4)n3)nc(N3CCC(N)CC3)nc12 [Compound 198] |
| > 7.00 | CC(C)c1cnn2c(NCc3ccccc3-n3cc(C(=O)N4CCN(C)CC4)cn3)nc(N3CCC(N)CC3)nc12 [Compound 154] |
| > 7.00 | CC(C)c1cnn2c(NCc3ccccc3-n3ccc(C(=O)NC4CCOCC4)n3)nc(N3CCC(N)CC3)nc12 [Compound 177] |

biological target: T4, CDK5/p25 (Homo sapiens, UniProt Q00535); assay: Enzymatic assay for CDK5 (FRET based LANCE Ultra kinase assay); assay type: biochemical; conditions: read-out: CDK5 enzymatic activity (IC50 range)
T4 construct: purchased Invitrogen PR8543B
T4 sequence (Q00535 whole entry): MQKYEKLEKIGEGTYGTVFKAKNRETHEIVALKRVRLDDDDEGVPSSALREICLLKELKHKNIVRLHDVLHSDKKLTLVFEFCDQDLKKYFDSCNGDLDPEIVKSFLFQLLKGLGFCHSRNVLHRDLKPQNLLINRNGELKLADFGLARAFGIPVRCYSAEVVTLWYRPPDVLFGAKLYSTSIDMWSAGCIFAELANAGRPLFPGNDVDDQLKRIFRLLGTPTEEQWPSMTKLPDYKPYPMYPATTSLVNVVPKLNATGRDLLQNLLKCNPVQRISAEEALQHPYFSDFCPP
T4 sequence (Q15078 99-307 partner limits assumed): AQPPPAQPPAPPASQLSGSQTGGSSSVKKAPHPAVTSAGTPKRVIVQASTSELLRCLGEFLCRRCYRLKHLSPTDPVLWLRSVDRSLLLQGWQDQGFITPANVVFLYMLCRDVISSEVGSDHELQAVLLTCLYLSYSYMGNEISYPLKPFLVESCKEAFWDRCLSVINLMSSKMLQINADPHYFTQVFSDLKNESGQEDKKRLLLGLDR
Outline: as §2

| pIC50 | SMILES |
| --- | --- |
| 6.00 to 7.00 | CC(C)c1cnn2c(NCc3c(Cl)cccc3-n3ccc(C(=O)N4CCNCC4)n3)nc(N3CCC(N)CC3)nc12 [Compound 198] |
| > 7.00 | CC(C)c1cnn2c(NCc3ccccc3-n3cc(C(=O)N4CCN(C)CC4)cn3)nc(N3CCC(N)CC3)nc12 [Compound 154] |
| > 7.00 | CC(C)c1cnn2c(NCc3ccccc3-n3ccc(C(=O)NC4CCOCC4)n3)nc(N3CCC(N)CC3)nc12 [Compound 177] |
